In PubChem BioAssay AID1963977 (Molecular Pharmacology Branch, DTP, NCI, 2024):
pIC50: −log10 of the molar value. Where “and” joins values, the source holds several entries; their conditions need not be identical. Identical values can stand only once.

Tested on: 624824-186-R-J3-PDC multicell spheroids, viability
Assay: Anticancer human tumor 624824-186-R-J3-PDC patient-derived colon adenocarcinoma cell line growth inhibition [PI3K]
Conditions: for viability, T/C: stronger effect = lower value
From the text: Combinatorial screen of targeted agents with the PI3K inhibitors inavolisib, alpelisib, duvelisib, and copanlisib in multi-cell type tumor spheroids
A high-throughput screen of multi-cell type tumor spheroids was designed to identify active combinations of targeted small molecules and PI3K pathway inhibitors. Complex spheroids include a stromal component modeled by human endothelial cells (HUVEC) and fibroblasts modeled by human mesenchymal stem cells (MSCs). The concentration ranges selected for each drug and investigational agent were based upon clinically achievable concentrations if the clinical Cmax of the agent was known.
Compounds. The drugs and investigational agents: inavolisib (NSC800729), alpelisib (NSC765974), duvelisib (NSC772469), copanlisib (NSC816437), ipatasertib (NSC767898), afuresertib (NSC778305), talazoparib (NSC767125), sapanisertib (NSC764658), selumetinib (NSC741078), tovorafenib (DAY101, NSC766906), vemurafenib (NSC761431), ravoxertinib (NSC781343), sotorasib (NSC818433), MRTX1133 (NSC 836407), abemaciclib (NSC 768073), palbociclib (NSC758247), venetoclax (NSC 766270), SY5609 (NSC837396), enzalutamide (NSC755605), and darolutamide (NSC825331), were obtained from the National Cancer Institute (NCI) Developmental Therapeutics Program Chemical Repository. The FDA-approved anticancer drug set is available from the NCI Developmental Therapeutics Program. […] The stock solutions were prepared in dimethyl sulfoxide (DMSO, Sigma-Aldrich, St. Louis, MO, cat. D2650) at 800-fold the tested concentration and stored at -70 degrees C prior to their use. All drugs and investigational agents were tested over a range starting from a high concentration at or near the clinical Cmax and decreasing in half-log increments. If the clinical Cmax for an agent had not been determined, the highest concentration tested was 10 microM.
Cell Culture. All cells were maintained in an incubator at 37 degrees C and 5% CO2 with 95% humidity. The PDC lines were cultured according to standard operating procedures established by the NCI PDMR (https://pdmr.cancer.gov/sops/default.htm). All PDCs were thawed and cultured in Matrigel-coated flasks prepared with a working solution of 1X Ham's F-12 nutrient mix, without supplementation (Invitrogen, Waltham, MA, cat. 11765054), 100 U/mL penicillin-streptomycin (Invitrogen, cat. 15140122), and 2.5% Matrigel (Corning Inc., Corning, NY, cat. 354248) for the first three passages. The 354836-022-R-J1-PDC, 475296-252-R-J1-PDC, and 997726-040-R-J2-PDC lines were cultured in 6A media, which includes advanced DMEM/F-12 (Thermo Fisher Scientific, cat. 12634028), 10 mM HEPES (Thermo Fisher Scientific, cat. 15630080), 1X GlutaMAX supplement (Thermo Fisher Scientific, cat. 35050061), 0.1 mg/mL primocin (InvivoGen, San Diego, CA, cat. ant-pm-2), 10% defined fetal bovine serum, heat inactivated (HyClone Laboratories Inc., Logan, UT, cat. SH30070.03HI), 50% L-WRN conditioned media (ATCC, cat. CRL-3276), 1.25 mM N-Acetyl-L-cysteine (Sigma-Aldrich, cat. A9165), 10 mM nicotinamide (Sigma-Aldrich, cat. N0636), 1X B-27 supplement (Thermo Fisher Scientific, cat. 17504044), 1X N-2 supplement (Thermo Fisher Scientific, cat. 17502048), and 10 microM Y-27632 dihydrochloride (Tocris Bioscience, Bristol, United Kingdom, cat. 1254). The 624824-186-R-J2-PDC line was cultured in 6C/Colon 1B media, which includes all 6A media components plus 50 ng/mL human EGF recombinant protein (Thermo Fisher Scientific, cat. PHG0311). […]
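Note: spheroids exposed to agents for seven days before luminescence read.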
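Throughout, for viability, T/C: luminescent signal used as a stand-in for spheroid viability; percent viability relative to DMSO vehicle control wells taken as 100%.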

## Cn1ncc(Cl)c1-c1cc(C(=O)NC(CN)Cc2cccc(F)c2)sc1Cl (centres undefined) + CC(Nc1ccc2c(c1)OCCn1cc(N3C(=O)OCC3C(F)F)nc1-2)C(N)=O
Curve of first compound, second compound 0.00316 µM
  pIC50: < 5.00
Curve of first compound, second compound 0.01 µM
  pIC50: < 5.00
Curve of first compound, second compound 0.0316 µM
  pIC50: < 5.00
Curve of first compound, second compound 0.1 µM
  pIC50: < 5.00
Curve of first compound, second compound 0.316 µM
  pIC50: < 5.00
Curve of first compound, second compound 1 µM
  pIC50: 5.51
Second compound 0.00316 µM, first compound 0.0316 µM
  viability, T/C: 111%
Second compound 0.00316 µM, first compound 0.1 µM
  viability, T/C: 105%
Second compound 0.00316 µM, first compound 0.316 µM
  viability, T/C: 103%
Second compound 0.00316 µM, first compound 1 µM
  viability, T/C: 74.1%
Second compound 0.00316 µM, first compound 3.16 µM
  viability, T/C: 55.4%
Second compound 0.00316 µM, first compound 10 µM
  viability, T/C: 80%
Second compound 0.01 µM, first compound 0.0316 µM
  viability, T/C: 103%
Second compound 0.01 µM, first compound 0.1 µM
  viability, T/C: 99.3%
Second compound 0.01 µM, first compound 0.316 µM
  viability, T/C: 92.9%
Second compound 0.01 µM, first compound 1 µM
  viability, T/C: 70%
Second compound 0.01 µM, first compound 3.16 µM
  viability, T/C: 52.4%
Second compound 0.01 µM, first compound 10 µM
  viability, T/C: 84%
Second compound 0.0316 µM, first compound 0.0316 µM
  viability, T/C: 104%
Second compound 0.0316 µM, first compound 0.1 µM
  viability, T/C: 99.4%
Second compound 0.0316 µM, first compound 0.316 µM
  viability, T/C: 90.2%
Second compound 0.0316 µM, first compound 1 µM
  viability, T/C: 66.7%
Second compound 0.0316 µM, first compound 3.16 µM
  viability, T/C: 49.5%
Second compound 0.0316 µM, first compound 10 µM
  viability, T/C: 83.1%
Second compound 0.1 µM, first compound 0.0316 µM
  viability, T/C: 103%
Second compound 0.1 µM, first compound 0.1 µM
  viability, T/C: 97.3%
Second compound 0.1 µM, first compound 0.316 µM
  viability, T/C: 91.4%
Second compound 0.1 µM, first compound 1 µM
  viability, T/C: 69.2%
Second compound 0.1 µM, first compound 3.16 µM
  viability, T/C: 51.4%
Second compound 0.1 µM, first compound 10 µM
  viability, T/C: 79.2%
Second compound 0.316 µM, first compound 0.0316 µM
  viability, T/C: 100%
Second compound 0.316 µM, first compound 0.1 µM
  viability, T/C: 93%
Second compound 0.316 µM, first compound 0.316 µM
  viability, T/C: 88.5%
Second compound 0.316 µM, first compound 1 µM
  viability, T/C: 64.1%
Second compound 0.316 µM, first compound 3.16 µM
  viability, T/C: 42%
Second compound 0.316 µM, first compound 10 µM
  viability, T/C: 62.4%
Second compound 1 µM, first compound 0.0316 µM
  viability, T/C: 90.1%
Second compound 1 µM, first compound 0.1 µM
  viability, T/C: 90.6%
Second compound 1 µM, first compound 0.316 µM
  viability, T/C: 76.7%
Second compound 1 µM, first compound 1 µM
  viability, T/C: 63.7%
Second compound 1 µM, first compound 3.16 µM
  viability, T/C: 44.3%
Second compound 1 µM, first compound 10 µM
  viability, T/C: 50.9%

## CC(C)NCC(C(=O)N1CCN(c2ncnc3c2C(C)CC3O)CC1)c1ccc(Cl)cc1 (centres undefined)
Compound 0.0316 µM
  viability, T/C: 101% [middle of 4 runs]
Compound 0.1 µM
  viability, T/C: 101% [middle of 4 runs]
Compound 0.316 µM
  viability, T/C: 102% (2×) and 100% and 105%
Compound 1 µM
  viability, T/C: 82% [middle of 4 runs]
Compound 3.16 µM
  viability, T/C: 67.8% [middle of 4 runs]
Compound 10 µM
  viability, T/C: 57.8% [middle of 4 runs]
Curve of compound
  pIC50: < 5.00 and 5.19
